The values that follow are results of earlier work, collected in patent publication EP1399019B1, “ADJUVANT COMPOSITIONS AND PESTICIDES” (HUNTSMAN PETROCHEMICAL CORPORATION, priority 2001, dated 2002).

Each structure is given as a SMILES string. Where two headings read alike, the source gives them in different places.

In the case of `CNC(=O)CSP(=S)(OC)OC` [Cygon, dimethoate], the “time to lose 50 percent of its pest control power” value is 48 min (mixed in water of pH 9) and 720 min (pH of 6).
